Several values for one entry are separate records, joined by “and”; a condition that tells them apart may be missing. Identical values can stand only once. Entries after “also recorded” stand apart in the source; their conditions may differ. Marks after values point to notes of the source that are not given here.
Key:
[1] = target: ABCB1 (P-glycoprotein) in Colo 320 colonic adenocarcinoma cells (Homo sapiens, UniProt P08183); experiment: ABCB1 inhibition, rhodamine 123 accumulation by flow cytometry; details: for FAR (fluorescence activity ratio): rhodamine 123, FAR above 2 considered effective
Sequence of ABCB1 (P-glycoprotein) in Colo 320 colonic adenocarcinoma cells (P08183 whole entry): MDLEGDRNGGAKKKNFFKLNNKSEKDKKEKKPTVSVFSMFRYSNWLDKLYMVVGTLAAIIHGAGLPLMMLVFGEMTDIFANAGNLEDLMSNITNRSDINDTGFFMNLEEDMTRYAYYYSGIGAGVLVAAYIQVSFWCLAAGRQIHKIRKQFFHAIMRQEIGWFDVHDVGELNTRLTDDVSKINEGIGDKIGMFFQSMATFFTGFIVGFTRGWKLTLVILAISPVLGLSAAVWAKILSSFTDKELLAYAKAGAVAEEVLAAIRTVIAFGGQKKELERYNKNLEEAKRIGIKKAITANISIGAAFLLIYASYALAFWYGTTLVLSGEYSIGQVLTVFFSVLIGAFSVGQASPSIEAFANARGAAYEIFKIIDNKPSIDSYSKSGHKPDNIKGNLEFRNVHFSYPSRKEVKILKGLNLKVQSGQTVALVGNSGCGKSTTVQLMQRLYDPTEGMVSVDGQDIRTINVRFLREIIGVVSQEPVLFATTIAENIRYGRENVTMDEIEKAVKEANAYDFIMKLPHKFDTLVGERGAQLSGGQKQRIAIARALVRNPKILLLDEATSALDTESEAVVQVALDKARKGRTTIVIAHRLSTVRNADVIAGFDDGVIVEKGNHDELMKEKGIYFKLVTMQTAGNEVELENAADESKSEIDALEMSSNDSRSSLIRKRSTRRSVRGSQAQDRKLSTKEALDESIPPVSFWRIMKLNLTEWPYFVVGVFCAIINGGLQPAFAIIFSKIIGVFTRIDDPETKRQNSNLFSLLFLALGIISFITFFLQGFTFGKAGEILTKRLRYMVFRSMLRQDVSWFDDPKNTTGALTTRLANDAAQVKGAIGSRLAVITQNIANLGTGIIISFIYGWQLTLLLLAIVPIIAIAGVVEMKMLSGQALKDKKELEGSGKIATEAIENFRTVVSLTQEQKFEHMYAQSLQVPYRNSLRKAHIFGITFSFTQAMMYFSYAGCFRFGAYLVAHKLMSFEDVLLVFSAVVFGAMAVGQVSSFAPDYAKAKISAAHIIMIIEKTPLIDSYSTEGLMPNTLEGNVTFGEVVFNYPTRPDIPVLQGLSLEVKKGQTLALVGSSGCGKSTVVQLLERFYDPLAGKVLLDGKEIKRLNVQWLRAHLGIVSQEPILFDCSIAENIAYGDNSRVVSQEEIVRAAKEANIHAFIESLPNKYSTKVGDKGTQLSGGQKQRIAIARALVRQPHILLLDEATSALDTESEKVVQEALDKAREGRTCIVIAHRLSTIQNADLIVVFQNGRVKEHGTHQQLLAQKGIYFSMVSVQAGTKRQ
Experimental: The inhibition of the ABCB1 multidrug efflux pump ABCB1 by the tested compounds was evaluated using flow cytometry, measuring the retention of rhodamine 123 by ABCB1 (P-glycoprotein) in Colo 320 colonic adenocarcinoma cells. Briefly, the cell number of colonic adenocarcinoma cells were adjusted to 2 × 10^6 cells/mL, re-suspended in serum-free RPMI-1640 medium in the case of colonic adenocarcinoma cells, and distributed in 0.5 mL aliquots into Eppendorf centrifuge tubes. The tested compounds were added at different concentrations (0.2 and 2 µM; from 1 and 10 mM stock solutions, respectively), and the samples were incubated for 10 min at room temperature. Tariquidar was applied as the positive control (0.2 µM final concentration), and DMSO was used as the solvent control (at 2 v/v%). Next, 10 µL (5.2 µM final concentration) of the fluorochrome rhodamine 123 (Sigma, St. Louis, MO, USA) was added to the samples and the cells were incubated for 20 min at 37 °C. After the incubation period, the cells were washed twice and re-suspended in 0.5 mL PBS for analysis. The fluorescence of the gated cell population was measured with a Partec CyFlow® flow cytometer (Partec, Münster, Germany). The percentage of the mean fluorescence intensity was calculated for the treated MDR cells as compared with the untreated cells. The results were obtained from a representative flow cytometry experiment in which at least 20,000 individual cells of the overall population were evaluated for the rhodamine 123 retained inside the cells. The fluorescence activity ratio (FAR) was calculated based on the following equation, which relates the measured fluorescence values: FAR=Colo320treated / Colo320control/Colo205treated / Colo205control
The parameters evaluated from flow cytometry experiments were: Forward Scatter Count (FSC, provides information about cell size); Side Scatter Count (SSC, proportional to cell granularity or internal complexity); FL-1 (Mean fluorescence of the cells), and Fluorescence Activity Ratio (FAR), which was calculated by the equation given above.

[2] = target: T1, recombinant human P-gp membranes (Homo sapiens, UniProt P08183); experiment: P-gp ATPase activity assay (Pgp-Glo); format: biochemical; details: 25 µM; relative to basal activity
T1 construct: purchased Promega
T1 sequence (P08183 whole entry): as above
Experimental: P-glycoprotein ATPase activity was determined using the Pgp-Glo^TM Assay System (Promega, WI, USA). The assay was performed according to the manufacturer’s instructions. […] DMSO at 2% was applied as a solvent control. […] The reaction was stopped after adding 50 µL of ATP Detection Reagent. Then, the samples and controls were incubated at room temperature for 20 min. The emitted luciferase-generated luminescent signal was measured in a CLARIOstar Plus plate reader (BMG Labtech, UK) at 580 nm. The relative ATPase activity was calculated based on the ratio between the luminescence measured of the P-gp ATPase activity of each compound and the basal P-gp ATPase activity according to the following equation: Relative ATPase activity=Lumtreated−Lumuntreated/LumNa3VO4 − Lumuntreated
The effect of the tested compounds was evaluated according to the instructions of the manufacturer (Table 2).

[3] = test system: MDR Colo 320 adenocarcinoma cells; experiment: Apoptosis induction (Annexin V-FITC / propidium iodide); format: cell-based, human; details: 2 µM; for Cell Death (%) Treated Sample-Untreated Sample / Early Apoptosis (%) Treated Sample-Untreated Sample / Late Apoptosis (%) Treated Sample-Untreated Sample: 3 h induction; for Apoptosis Quotient (%): total apoptotic events relative to reference M627 (20 µM)
Experimental: The assay was carried out using an Annexin V-FITC Apoptosis Detection Kit Cat. No. PF 032 from Calbiochem (EMD Biosciences. Inc. La Jolla. CA), according to the manufacturer's instructions. […] The cell suspension was distributed into 1 mL aliquots (1 × 10^6 cells) into a 24-well microplate and incubated overnight at 37 °C, with 5% CO2. On the following day, the medium was removed and a fresh medium was added to the cells. The cells were incubated in the presence of Se-compounds for 3 h at 37 °C. […] After a 3 h induction period, the culture medium was removed, the cells were washed with PBS, and a fresh medium was added to the cells. The 24-well plates were incubated overnight at 37 °C, with 5% CO2. After the incubation, the supernatant was collected in a microfuge tube and 200 μL of 0.25 trypsin (Trypsin-Versene) was added to the wells until the cells detached from the surfaces of the wells. The cells were centrifuged at 2000× g for 2 min at room temperature, the supernatant was removed, and the cells were re-suspended in fresh serum-free medium. After this procedure, apoptosis assay was carried out according to the rapid protocol of the kit using Annexin V-FITC and propidium iodide staining. […] The data were analysed by FlowJo^TM software (BD Biosciences, San Jose, NJ, USA).

[4] = test system: HepG2 (hepatocellular carcinoma); experiment: Cytotoxicity on HepG2 cells; format: cell-based, human; details: ratio IC50 non-tumour cells / IC50 cancer cells

SMILES	FSC (Forward Scatter Count) ([1]; 0.2 µM)	SSC (Side Scatter Count) ([1]; 0.2 µM)	FAR (fluorescence activity ratio) ([1]; 0.2 µM)	FSC (Forward Scatter Count) ([1]; 2 µM)	SSC (Side Scatter Count) ([1]; 2 µM)	FAR (fluorescence activity ratio) ([1]; 2 µM)	Effect on P-gp ATPase activity [2]	Total Apoptotic Events (Early + Late, %) [3]	Cell Death (%) Treated Sample-Untreated Sample [3]	Early Apoptosis (%) Treated Sample-Untreated Sample [3]	Late Apoptosis (%) Treated Sample-Untreated Sample [3]	Apoptosis Quotient (%) [3]	SI MRC-5/HepG2 [4]	melting point
CC(=O)C[Se]C(=O)c1cccs1 [K1, Se-(2-Oxopropyl) Thiophene-2-carboselenoate]	2144	989	1.37	1866	1067	45.73	inhibited the ATPase activity; also recorded: inhibitors of P-gp ATPase activity	32.6%	2.15%	3.7%	28.9%	66.0%		
CC(=O)C[Se]C(=O)c1ccccc1F [K2, Se-(2-Oxopropyl) 2-Fluorobenzoselenoate]	1916	1061	1.41	1945	1156	37.35		34.2%	0.95%	0.3%	33.9%	69.2%	1.1	
CC(=O)C[Se]C(=O)c1ccc(Br)cc1 [K3, Se-(2-Oxopropyl) 4-Bromobenzoselenoate]	1706	982	3.99	2040	1031	39.17	stimulated the P-gp ATPase with a comparable intensity to the reference verapamil	44.2%	0.00%	18.6%	25.6%	89.5%		
CC(=O)C[Se]C(=O)c1ccccc1C(F)(F)F [K4, Se-(2-Oxopropyl) 2-(Trifluoromethyl)benzoselenoate]	1808	861	1.76	1830	1008	4.99		19.5%	5.95%	3.4%	16.1%	39.5%		
CC(=O)C[Se]C(=O)c1cccc(C(F)(F)F)c1 [K5, Se-(2-Oxopropyl) 3-(Trifluoromethyl)benzoselenoate]	1982	1096	1.84	1949	1053	32.61 and 32.62	milder stimulation	32.7%	1.35%	1.8%	30.9%	66.2%	1.3	
CC(=O)C[Se]C(=O)c1ccc(F)c(Cl)c1 [K6, Se-(2-Oxopropyl) 3-Chloro-4-fluorobenzoselenoate]	1996	873	1.48	1833	1043	29.4 and 29.42		32.3%	0.17%	4.5%	27.8%	65.4%		
CC(=O)C[Se]C(=O)c1ccc(C(C)(C)C)cc1 [K7, Se-(2-Oxopropyl) 4-(Tert-butyl)benzoselenoate]	1889	938	1.53	1920	1045	40.38 and 40.39	inhibited the ATPase activity; also recorded: inhibitors of P-gp ATPase activity	33.6%	0.10%	6.1%	27.5%	68.0%	1.0	
N#CC[Se]C(=O)c1cccc(F)c1 [N2, Se-(Cyanomethyl) 3-Fluorobenzoselenoate]													>6 *	
N#CC[Se]C(=O)c1ccc(Br)cc1 [N3, Se-(Cyanomethyl) 4-Bromobenzoselenoate]													>6 *	105 to 107 °C
N#CC[Se]C(=O)c1ccccc1C(F)(F)F [N4, Se-(Cyanomethyl) 2-(Trifluoromethyl)benzoselenoate]													>6 *	65 to 67 °C
N#CC[Se]C(=O)c1cc(C(F)(F)F)cc(C(F)(F)F)c1 [N7, Se-(Cyanomethyl) 3,5-Bis(trifluoromethyl)benzoselenoate]													>6 *	63 to 65 °C

From paper PMC8465942, “Cyano- and Ketone-Containing Selenoesters as Multi-Target Compounds against Resistant Cancers” (Cancers, 2021)
